Data: patent US6355799B1, “Substituted benzene compounds, process for their preparation, and herbicidal and defoliant compositions containing them” (ISK Americas Incorporated, priority 1997, dated 2002)

Experiments:
Assay type in all cases: in vivo
[1] = test system: green foxtail (Setaria viridis, SETVI); assay: Pre-emerge test, greenhouse herbicide activity screening; details: phytotoxicity rating 0-100, 14 days after application
In short: (§1)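 Compounds in acetone were track-sprayed at 15-1000 g ai/ha (187 l/ha) on sandy loam pots: pre-emerge one day after seeding, post-emerge at 2-3 leaf stage with 0.25% v/v non-ionic surfactant. Phytotoxicity was rated 14 days later on a 0 (no damage) to 100 (complete death) scale.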

[2] = test system: velvetleaf (Abutilon theophrasti, ABUTH); assay: as above; details: phytotoxicity rating 0-100, 14 days after application
In short: as §1

[3] = test system: johnsongrass (Sorghum halepense, SORHA); assay: as above; details: phytotoxicity rating 0-100, 14 days after application
In short: as §1

[4] = test system: lambsquarters (Chenopodium album, CHEAL); assay: as above; details: phytotoxicity rating 0-100, 14 days after application
In short: as §1

[5] = test system: barnyardgrass (Echinochloa crus-galli, ECHCG); assay: as above; details: phytotoxicity rating 0-100, 14 days after application
In short: as §1

[6] = test system: common ragweed (Ambrosia artemisizfolia L., AMBEL); assay: as above; details: phytotoxicity rating 0-100, 14 days after application
In short: as §1

[7] = test system: sicklepod (Cassia obtusifolia, CASOB); assay: as above; details: phytotoxicity rating 0-100, 14 days after application
In short: as §1

[8] = test system: ivyleaf morningglory (Ipomoea hederacea, IPOHE); assay: as above; details: phytotoxicity rating 0-100, 14 days after application
In short: as §1

[9] = test system: large crabgrass (Digitaria sanguinalis, DIGSA); assay: as above; details: phytotoxicity rating 0-100, 14 days after application
In short: as §1

[10] = test system: upland rice (Oryza sp., var. Tebonnet, RICE); assay: Pre-emerge test, crop safety; details: crop damage rating 0-100, 14 days after application
In short: (§2)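 Visual ratings on a 0-100 scale (0 no damage, 100 all plants dead) were taken at 14 days after treatment. Rates of 15-1000 g ai/ha in acetone, 187 l/ha, were sprayed onto soil one day after planting (pre-emerge) or onto 2-3 leaf plants with 0.25% v/v surfactant (post-emerge).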

[11] = test system: field corn (Zea mays L., var. Dekalb 535, CORN); assay: Pre-emerge test, crop safety; details: crop damage rating 0-100, 14 days after application
In short: as §2

[12] = test system: green foxtail (Setaria viridis, SETVI); assay: Post-emerge test, greenhouse herbicide activity screening; details: post-emerge, 14 days after application, rating scale 0-100
In short: (§3)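 Herbicidal damage is scored 0 (none) to 100 (complete plant death) two weeks after a simulated field spray. Rates span 15–1000 g ai/ha, delivered in acetone at 187 l/ha. For post-emergence treatments, plants have 2–3 leaves and the spray carries 0.25% v/v non-ionic surfactant.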

[13] = test system: velvetleaf (Abutilon theophrasti, ABUTH); assay: as above; details: post-emerge, 14 days after application, rating scale 0-100
In short: as §3

[14] = test system: johnsongrass (Sorghum halepense, SORHA); assay: as above; details: post-emerge, 14 days after application, rating scale 0-100
In short: as §3

[15] = test system: redroot pigweed (Amaranthus retroflexus, AMARE); assay: as above; details: post-emerge, 14 days after application
In short: as §3

[16] = test system: lambsquarters (Chenopodium album, CHEAL); assay: as above; details: post-emerge, 14 days after application, rating scale 0-100
In short: as §3

[17] = test system: barnyardgrass (Echinochloa crus-galli, ECHCG); assay: as above; details: post-emerge, 14 days after application, rating scale 0-100
In short: as §3

[18] = test system: sicklepod (Cassia obtusifolia, CASOB); assay: as above; details: post-emerge, 14 days after application, rating scale 0-100
In short: as §3

[19] = test system: ivyleaf morningglory (Ipomoea hederacea, IPOHE); assay: as above; details: post-emerge, 14 days after application, rating scale 0-100
In short: as §3

[20] = test system: large crabgrass (Digitaria sanguinalis, DIGSA); assay: as above; details: post-emerge, 14 days after application, rating scale 0-100
In short: as §3

[21] = test system: redroot pigweed (Amaranthus retroflexus, AMARE); assay: Pre-emerge test, greenhouse herbicide activity screening; details: phytotoxicity rating 0-100, 14 days after application
In short: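 Rating: 0–100 visual injury, 14 DAA. Application: acetone, 187 l/ha, 15–1000 g ai/ha, flat-fan track sprayer with nozzle 40–45 cm above soil or canopy. Post-emerge runs used 0.25% v/v surfactant on 2–3 leaf plants.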

[22] = test system: upland rice (Oryza sp., var. Tebonnet, RICE); assay: Post-emerge test, crop safety; details: post-emerge, 14 days after application, rating scale 0-100
In short: as §1

[23] = test system: field corn (Zea mays L., var. Dekalb 535, CORN); assay: Post-emerge test, crop safety; details: post-emerge, 14 days after application, rating scale 0-100
In short: as §1

[24] = 63 g ai/ha, rating scale 0-100 (0 no damage, 100 complete death)
[25] = 250 g ai/ha, rating scale 0-100

Cn1c(C(F)(F)F)cc(=O)n(-c2ccc(Cl)cc2NC(=O)Oc2ccccc2)c1=O [4-50]
Pre-emerge Herbicidal Activity SETVI ([1]; 63 g ai/ha): 0 | Pre-emerge Herbicidal Activity SETVI ([1]; 250 g ai/ha): 10 | Pre-emerge Herbicidal Activity ABUTH ([2]; 63 g ai/ha): 20 | Pre-emerge Herbicidal Activity ABUTH ([2]; 250 g ai/ha): 100 | Pre-emerge Herbicidal Activity SORHA ([3]; 63 g ai/ha): 0 | Pre-emerge Herbicidal Activity SORHA ([3]; 250 g ai/ha): 0 | Pre-emerge Herbicidal Activity CHEAL ([4]; 63 g ai/ha): 40 | Pre-emerge Herbicidal Activity CHEAL ([4]; 250 g ai/ha): 100 | Pre-emerge Herbicidal Activity ECHCG ([5]; 63 g ai/ha): 0 | Pre-emerge Herbicidal Activity ECHCG ([5]; 250 g ai/ha): 0 | Pre-emerge Herbicidal Activity AMBEL ([6]; 63 g ai/ha): 0 | Pre-emerge Herbicidal Activity AMBEL ([6]; 250 g ai/ha): 0 | Pre-emerge Herbicidal Activity CASOB ([7]; 63 g ai/ha): 0 | Pre-emerge Herbicidal Activity CASOB ([7]; 250 g ai/ha): 0 | Pre-emerge Herbicidal Activity IPOHE ([8]; 63 g ai/ha): 0 | Pre-emerge Herbicidal Activity IPOHE ([8]; 250 g ai/ha): 30 | Pre-emerge Herbicidal Activity DIGSA ([9]; 63 g ai/ha): 0 | Pre-emerge Herbicidal Activity DIGSA ([9]; 250 g ai/ha): 30 | Pre-emerge Herbicidal Activity RICE ([10]; 63 g ai/ha): 0 | Pre-emerge Herbicidal Activity RICE ([10]; 250 g ai/ha): 10 | Pre-emerge Herbicidal Activity CORN ([11]; 63 g ai/ha): 0 | Pre-emerge Herbicidal Activity CORN ([11]; 250 g ai/ha): 0 | phytotoxicity rating SETVI ([12]; 63 g ai/ha): 0 | phytotoxicity rating SETVI ([12]; 250 g ai/ha): 0 | phytotoxicity rating ABUTH ([13]; 63 g ai/ha): 60 | phytotoxicity rating ABUTH ([13]; 250 g ai/ha): 95 | phytotoxicity rating SORHA ([14]; 63 g ai/ha): 0 | phytotoxicity rating SORHA ([14]; 250 g ai/ha): 0 | phytotoxicity rating AMARE [15, 24]: 30 | phytotoxicity rating AMARE [15, 25]: 70 | phytotoxicity rating CHEAL ([16]; 63 g ai/ha): 40 | phytotoxicity rating CHEAL ([16]; 250 g ai/ha): 95 | phytotoxicity rating ECHCG ([17]; 63 g ai/ha): 0 | phytotoxicity rating ECHCG ([17]; 250 g ai/ha): 0 | phytotoxicity rating CASOB ([18]; 63 g ai/ha): 0 | phytotoxicity rating CASOB ([18]; 250 g ai/ha): 20 | phytotoxicity rating IPOHE ([19]; 63 g ai/ha): 30 | phytotoxicity rating IPOHE ([19]; 250 g ai/ha): 90 | phytotoxicity rating DIGSA ([20]; 63 g ai/ha): 0 | phytotoxicity rating DIGSA ([20]; 250 g ai/ha): 0 | Pre-emerge Herbicidal Activity AMARE ([21]; 63 g ai/ha): 20 | Pre-emerge Herbicidal Activity AMARE ([21]; 250 g ai/ha): 100 | phytotoxicity rating RICE (crop damage) ([22]; 63 g ai/ha): 0 | phytotoxicity rating RICE (crop damage) ([22]; 250 g ai/ha): 0 | phytotoxicity rating CORN (crop damage) ([23]; 63 g ai/ha): 0 | phytotoxicity rating CORN (crop damage) ([23]; 250 g ai/ha): 10

Cc1ccc(-n2c(=O)cc(C(F)(F)F)n(C)c2=O)c(NC(=O)c2ccc3ccccc3c2)c1 [2-201]
Pre-emerge Herbicidal Activity SETVI ([1]; 63 g ai/ha): 0 | Pre-emerge Herbicidal Activity SETVI ([1]; 250 g ai/ha): 75 | Pre-emerge Herbicidal Activity ABUTH ([2]; 63 g ai/ha): 98 | Pre-emerge Herbicidal Activity ABUTH ([2]; 250 g ai/ha): 100 | Pre-emerge Herbicidal Activity SORHA ([3]; 63 g ai/ha): 0 | Pre-emerge Herbicidal Activity SORHA ([3]; 250 g ai/ha): 30 | Pre-emerge Herbicidal Activity CHEAL ([4]; 63 g ai/ha): 98 | Pre-emerge Herbicidal Activity CHEAL ([4]; 250 g ai/ha): 100 | Pre-emerge Herbicidal Activity ECHCG ([5]; 63 g ai/ha): 15 | Pre-emerge Herbicidal Activity ECHCG ([5]; 250 g ai/ha): 75 | Pre-emerge Herbicidal Activity AMBEL ([6]; 63 g ai/ha): 30 | Pre-emerge Herbicidal Activity AMBEL ([6]; 250 g ai/ha): 80 | Pre-emerge Herbicidal Activity CASOB ([7]; 63 g ai/ha): 0 | Pre-emerge Herbicidal Activity CASOB ([7]; 250 g ai/ha): 0 | Pre-emerge Herbicidal Activity IPOHE ([8]; 63 g ai/ha): 55 | Pre-emerge Herbicidal Activity IPOHE ([8]; 250 g ai/ha): 80 | Pre-emerge Herbicidal Activity DIGSA ([9]; 63 g ai/ha): 45 | Pre-emerge Herbicidal Activity DIGSA ([9]; 250 g ai/ha): 95 | Pre-emerge Herbicidal Activity RICE ([10]; 63 g ai/ha): 0 | Pre-emerge Herbicidal Activity RICE ([10]; 250 g ai/ha): 30 | Pre-emerge Herbicidal Activity CORN ([11]; 63 g ai/ha): 0 | Pre-emerge Herbicidal Activity CORN ([11]; 250 g ai/ha): 0 | phytotoxicity rating SETVI ([12]; 63 g ai/ha): 20 | phytotoxicity rating SETVI ([12]; 250 g ai/ha): 30 | phytotoxicity rating ABUTH ([13]; 63 g ai/ha): 95 | phytotoxicity rating ABUTH ([13]; 250 g ai/ha): 99 | phytotoxicity rating SORHA ([14]; 63 g ai/ha): 0 | phytotoxicity rating SORHA ([14]; 250 g ai/ha): 0 | phytotoxicity rating AMARE [15, 24]: 99 | phytotoxicity rating AMARE [15, 25]: 100 | phytotoxicity rating CHEAL ([16]; 63 g ai/ha): 95 | phytotoxicity rating CHEAL ([16]; 250 g ai/ha): 98 | phytotoxicity rating ECHCG ([17]; 63 g ai/ha): 50 | phytotoxicity rating ECHCG ([17]; 250 g ai/ha): 60 | phytotoxicity rating CASOB ([18]; 63 g ai/ha): 60 | phytotoxicity rating CASOB ([18]; 250 g ai/ha): 85 | phytotoxicity rating IPOHE ([19]; 63 g ai/ha): 95 | phytotoxicity rating IPOHE ([19]; 250 g ai/ha): 95 | phytotoxicity rating DIGSA ([20]; 63 g ai/ha): 35 | phytotoxicity rating DIGSA ([20]; 250 g ai/ha): 45 | Pre-emerge Herbicidal Activity AMARE ([21]; 63 g ai/ha): 95 | Pre-emerge Herbicidal Activity AMARE ([21]; 250 g ai/ha): 95 | phytotoxicity rating RICE (crop damage) ([22]; 63 g ai/ha): 60 | phytotoxicity rating RICE (crop damage) ([22]; 250 g ai/ha): 65 | phytotoxicity rating CORN (crop damage) ([23]; 63 g ai/ha): 30 | phytotoxicity rating CORN (crop damage) ([23]; 250 g ai/ha): 35
